Laboratory results published in ChEMBL document CHEMBL1201862, “PubChem BioAssay data set” (2004).
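Where inhibition never reached the appropriate level, the endpoint shown equals the highest concentration tested. Otherwise, values were interpolated linearly from a five-concentration, 48-hour dose response in 96-well plates. Abbreviation: GI50, concentration required for 50% inhibition of growth.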 Calls of active or inactive are those of the source. Rule as the data show it: active = GI50 up to about 1.1 µM and inactive = higher.

How the values were obtained:
Experiment in all cases: inhibition of tumour cell growth, NCI panel, 48 h
786-0 = tested on: 786-0
A549 = tested on: A549
ACHN = tested on: ACHN
DU-145 = tested on: DU-145
HCT-116 = tested on: HCT-116
HCT-15 = tested on: HCT-15
HL-60 = tested on: HL-60
HT-29 = tested on: HT-29
IGROV-1 = tested on: IGROV-1
NCI-H226 = tested on: NCI-H226
OVCAR-5 = tested on: OVCAR-5
OVCAR-8 = tested on: OVCAR-8
PC-3 = tested on: PC-3
RXF 393 = tested on: RXF 393
SK-MEL-2 = tested on: SK-MEL-2
SNB-19 = tested on: SNB-19
SNB-75 = tested on: SNB-75
SR = tested on: SR
SW-620 = tested on: SW-620

Compound	GI50 (786-0)	GI50 (A549)	GI50 (ACHN)	GI50 (DU-145)	GI50 (HCT-116)	GI50 (HCT-15)	GI50 (HL-60)	GI50 (HT-29)	GI50 (IGROV-1)	GI50 (NCI-H226)	GI50 (OVCAR-5)	GI50 (OVCAR-8)	GI50 (PC-3)	GI50 (RXF 393)	GI50 (SK-MEL-2)	GI50 (SNB-19)	GI50 (SNB-75)	GI50 (SR)	GI50 (SW-620)
Cc1c(C(=O)OCc2ccccc2)[n+]([O-])c2ccccc2[n+]1[O-]	44.1 µM (inactive)	22.2 µM (inactive)	74.3 µM (inactive)	19.9 µM (inactive)	25.1 µM (inactive)	40.9 µM	26.1 µM (inactive)	60.8 µM (inactive)	13 µM (inactive)	14.5 µM (inactive)	60.1 µM (inactive)	48.6 µM (inactive)	23.1 µM (inactive)	23.7 µM (inactive)	32.8 µM (inactive)	57.3 µM (inactive)	15.6 µM (inactive)	19.5 µM (inactive)	–
Cc1cc(-c2nc3cc(F)ccc3s2)ccc1NC(=O)C(C)N (stereo not drawn)	3.76 µM (inactive)	3.77 µM (inactive)	3.73 µM (inactive)	4.42 µM (inactive)	3.29 µM (inactive)	2.65 µM	0.249 µM (active)	4.12 µM (inactive)	0.0408 µM (active)	> 25 µM (inactive)	1 µM (active)	4.54 µM (inactive)	4.13 µM (inactive)	3.75 µM (inactive)	4.11 µM (inactive)	4.72 µM (inactive)	5.05 µM (inactive)	0.351 µM (active)	4.62 µM (inactive)
Clc1cc(Cl)cc(/N=C/C=C/Nc2cc(Cl)cc(Cl)c2)c1	17.3 µM (inactive)	18.3 µM (inactive)	20.1 µM (inactive)	21 µM (inactive)	15.5 µM (inactive)	14.9 µM	19.1 µM (inactive)	14.7 µM (inactive)	22.6 µM (inactive)	14.4 µM (inactive)	21.6 µM (inactive)	20.4 µM (inactive)	16.4 µM (inactive)	17.3 µM (inactive)	19.9 µM (inactive)	21.4 µM (inactive)	13.1 µM (inactive)	31.8 µM (inactive)	19 µM (inactive)
Cc1ccc(C(=N)c2ccccc2Cc2cccc3ccccc23)c2ccccc12	> 100 µM (inactive)	54.3 µM (inactive)	> 100 µM (inactive)	> 100 µM (inactive)	22.1 µM (inactive)	40.6 µM	44.1 µM (inactive)	11.7 µM (inactive)	> 100 µM (inactive)	> 100 µM (inactive)	> 100 µM (inactive)	> 100 µM (inactive)	> 100 µM (inactive)	> 100 µM (inactive)	> 100 µM (inactive)	> 100 µM (inactive)	> 100 µM (inactive)	41.6 µM (inactive)	71 µM (inactive)
N/C(=N\c1ccccc1)c1ccccc1N	> 100 µM (inactive)	> 100 µM (inactive)	> 100 µM (inactive)	> 100 µM (inactive)	> 100 µM (inactive)	> 100 µM	31.4 µM (inactive)	> 100 µM (inactive)	> 100 µM (inactive)	> 100 µM (inactive)	> 100 µM (inactive)	> 100 µM (inactive)	> 100 µM (inactive)	> 100 µM (inactive)	> 100 µM (inactive)	> 100 µM (inactive)	80.2 µM (inactive)	> 100 µM (inactive)	> 100 µM (inactive)
O=C1CC(Cc2n[nH]c3c2CCCC3)CC(=O)N1	> 100 µM (inactive)	> 100 µM (inactive)	–	> 100 µM (inactive)	> 100 µM (inactive)	> 100 µM	> 100 µM (inactive)	> 100 µM (inactive)	> 100 µM (inactive)	> 100 µM (inactive)	> 100 µM (inactive)	> 100 µM (inactive)	> 100 µM (inactive)	> 100 µM (inactive)	> 100 µM (inactive)	–	> 100 µM (inactive)	> 100 µM (inactive)	> 100 µM (inactive)
CCCCCCCCCCCCCC1=C(O)C(=O)C(CC2=C(O)C(=O)C(CCCCCCCCCCCCC)=C(O)C2=O)=C(O)C1=O	> 100 µM (inactive)	> 100 µM (inactive)	30.8 µM (inactive)	> 100 µM (inactive)	> 100 µM (inactive)	–	32.8 µM (inactive)	> 100 µM (inactive)	> 100 µM (inactive)	> 100 µM (inactive)	> 100 µM (inactive)	> 100 µM (inactive)	> 100 µM (inactive)	6.11 µM (inactive)	> 100 µM (inactive)	27.9 µM (inactive)	22.3 µM (inactive)	54.1 µM (inactive)	> 100 µM (inactive)
CC12CP(=O)(O)CC1C2(Cl)Cl (stereo not drawn)	> 100 µM (inactive)	> 100 µM (inactive)	> 100 µM (inactive)	> 100 µM (inactive)	> 100 µM (inactive)	> 100 µM	> 100 µM (inactive)	> 100 µM (inactive)	> 100 µM (inactive)	> 100 µM (inactive)	> 100 µM (inactive)	> 100 µM (inactive)	> 100 µM (inactive)	> 100 µM (inactive)	> 100 µM (inactive)	> 100 µM (inactive)	> 100 µM (inactive)	> 100 µM (inactive)	> 100 µM (inactive)
O=C(CCC(C(=O)OCc1ccccc1)C(=O)OCc1ccccc1)Nc1ccc(OCc2ccccc2)cc1	16.2 µM (inactive)	35.9 µM (inactive)	> 100 µM (inactive)	> 100 µM (inactive)	14.3 µM (inactive)	14 µM	> 100 µM (inactive)	> 100 µM (inactive)	> 100 µM (inactive)	> 100 µM (inactive)	> 100 µM (inactive)	14.7 µM (inactive)	17.6 µM (inactive)	49.8 µM (inactive)	–	83.2 µM (inactive)	> 100 µM (inactive)	99.1 µM (inactive)	> 100 µM (inactive)
C[N+](C)(N)Cc1nc(-c2ccc(Cl)cc2)no1	> 100 µM (inactive)	> 100 µM (inactive)	> 100 µM (inactive)	> 100 µM (inactive)	> 100 µM (inactive)	> 100 µM	> 100 µM (inactive)	> 100 µM (inactive)	> 100 µM (inactive)	> 100 µM (inactive)	> 100 µM (inactive)	> 100 µM (inactive)	> 100 µM (inactive)	> 100 µM (inactive)	> 100 µM (inactive)	> 100 µM (inactive)	> 100 µM (inactive)	26.8 µM (inactive)	> 100 µM (inactive)
Oc1ccc(C(O)(c2ccccc2)c2ccccc2)c2ccccc12	2.02 µM (inactive)	3.27 µM (inactive)	1.77 µM (inactive)	2.13 µM (inactive)	2.1 µM (inactive)	1.22 µM	2.93 µM (inactive)	2.77 µM (inactive)	1.87 µM (inactive)	2.52 µM (inactive)	2.3 µM (inactive)	2.42 µM (inactive)	2.25 µM (inactive)	3.75 µM (inactive)	2.4 µM (inactive)	5.15 µM (inactive)	4.53 µM (inactive)	2.5 µM (inactive)	2.64 µM (inactive)
O=C(O)[C@@H]1C[C@@H](O)CN1C(=O)OCc1ccccc1	> 100 µM (inactive)	> 100 µM (inactive)	> 100 µM (inactive)	> 100 µM (inactive)	> 100 µM (inactive)	> 100 µM	> 100 µM (inactive)	> 100 µM (inactive)	> 100 µM (inactive)	> 100 µM (inactive)	> 100 µM (inactive)	> 100 µM (inactive)	> 100 µM (inactive)	> 100 µM (inactive)	> 100 µM (inactive)	> 100 µM (inactive)	1.16 µM (inactive)	> 100 µM (inactive)	> 100 µM (inactive)
CCCCCCCCCCCCCCCCCCOCC(CO[PH](=O)O)OCCCCCCCCCCCCCCCCCC (stereo not drawn)	> 50 µM (inactive)	> 50 µM (inactive)	–	> 50 µM (inactive)	> 50 µM (inactive)	> 50 µM	> 50 µM (inactive)	> 50 µM (inactive)	> 50 µM (inactive)	> 50 µM (inactive)	> 50 µM (inactive)	> 50 µM (inactive)	> 50 µM (inactive)	> 50 µM (inactive)	> 50 µM (inactive)	> 50 µM (inactive)	> 50 µM (inactive)	> 50 µM (inactive)	> 50 µM (inactive)
O=c1c2ccccc2oc2c1ccc1ncccc12	12.3 µM (inactive)	5.4 µM (inactive)	5.55 µM (inactive)	4.69 µM (inactive)	6.34 µM (inactive)	11.9 µM	9.35 µM (inactive)	14.5 µM (inactive)	11 µM (inactive)	13.3 µM (inactive)	1.4 µM (inactive)	11.8 µM (inactive)	22.4 µM (inactive)	13.4 µM (inactive)	27.2 µM (inactive)	–	21.3 µM (inactive)	8.87 µM (inactive)	10.7 µM (inactive)
Nc1nc(=O)c2cc(NCc3ccc(C(=O)NC(CCC(=O)O)C(=O)O)cc3)ccc2[nH]1 (stereo not drawn)	> 100 µM (inactive)	80.7 µM (inactive)	4.31 µM (inactive)	> 100 µM (inactive)	> 100 µM (inactive)	> 100 µM	21.4 µM (inactive)	> 100 µM (inactive)	> 100 µM (inactive)	> 100 µM (inactive)	> 100 µM (inactive)	68.2 µM (inactive)	> 100 µM (inactive)	> 100 µM (inactive)	> 100 µM (inactive)	> 100 µM (inactive)	> 100 µM (inactive)	23.3 µM (inactive)	> 100 µM (inactive)
